Results as given in ChEMBL document CHEMBL1155624, “Steroidal glycosides from the aerial parts of Polianthes tuberosa” (J Nat Prod, 2000).
Values after ≈ are worked out from the molar mass of the structure shown.

Test system: HL-60
Experiment: Cytotoxicity against human HL60 cells by MTT reduction assay
Format: functional, cell-based

## CC1CC[C@@]2(OC1)O[C@H]1C[C@H]3[C@@H]4C[C@H](O)[C@H]5C[C@@H](O[C@@H]6O[C@H](CO)[C@H](O[C@@H]7O[C@H](CO)[C@@H](O)[C@H](O[C@@H]8OC[C@@H](O)[C@H](O)[C@H]8O)[C@H]7O[C@@H]7O[C@H](CO)[C@@H](O)[C@H](O[C@@H]8OC[C@@H](O)[C@H](O)[C@H]8O)[C@H]7O)[C@H](O)[C@H]6O)CC[C@]5(C)[C@H]4CC[C@]3(C)[C@H]1[C@@H]2C (some centres undefined)
  IC50: 2.6 µg/mL (≈ 2.2 µM)

## CC1CC[C@@]2(OC1)O[C@H]1C[C@H]3[C@@H]4CC[C@H]5C[C@@H](O[C@@H]6O[C@H](CO)[C@H](O[C@@H]7O[C@H](CO)[C@@H](O)[C@H](O[C@@H]8OC[C@@H](O)[C@H](O)[C@H]8O)[C@H]7O[C@@H]7O[C@H](CO)[C@@H](O)[C@H](O[C@@H]8OC[C@@H](O)[C@H](O)[C@H]8O)[C@H]7O)[C@H](O)[C@H]6O)CC[C@]5(C)[C@H]4CC(=O)[C@]3(C)[C@H]1[C@@H]2C (some centres undefined)
  IC50: 3.2 µg/mL (≈ 2.71 µM)

## CC(C)CC[C@H](O)[C@@H](C)[C@H]1[C@@H](O[C@@H]2OC[C@](O)(CO)[C@H]2O)C[C@H]2[C@@H]3CC=C4C[C@@H](O)C[C@@H](O[C@@H]5O[C@H](CO)[C@@H](O)[C@H](O)[C@H]5O)[C@]4(C)[C@H]3CC[C@]12C
  IC50: > 10 µg/mL

## CC1CC[C@@]2(OC1)O[C@H]1C[C@H]3[C@@H]4CC[C@H]5C[C@@H](O[C@@H]6O[C@H](CO)[C@H](O[C@@H]7O[C@H](CO)[C@@H](O)[C@H](O[C@@H]8OC[C@@H](O)[C@H](O)[C@H]8O)[C@H]7O[C@@H]7O[C@H](CO)[C@@H](O)[C@H](O[C@@H]8OC[C@@H](O)[C@H](O)[C@H]8O)[C@H]7O)[C@H](O)[C@H]6O)CC[C@]5(C)C4=CC(=O)[C@]3(C)[C@H]1[C@@H]2C (some centres undefined)
  IC50: 6.1 µg/mL (≈ 5.17 µM)
